The values below come from US6582968B2, “Paramagnetic and active analogue (EMP-2) of melanocyte stimulating hormone containing amino acid-type stable free radical” (Conselho Nacional de Desenvolvimento Cientifico e …, priority 1999, dated 2003).

This assay has as its system frog (Rana catesbeiana) skin. In words: frog skin bioassay (skin darkening measured by reflectance). In kind it is cell-based. The following applies: for time to reversal of the maximum response after removal of the agonist: 10^−8 M peptide, removal followed by several Ringer's solution washings, FIG. 5; for agonist character and potency compared to native α-MSH (dose-response curves): frog skin pigmentation, decrease in skin reflectance, FIG. 4. The protocol: The biological activity assay of the EPM-2 was carried out comparatively to the native α-MSH. The classical method of measuring by reflectance the alteration in the frog skin pigmentation was assayed, see, Gen. Comp. Endocrinol. 55, 104 (1984). The potency of the synthesized hormone was determined through a dose-effect curve and long lasting activities were measured until a maximum of 3 h after the peptide removal from the incubation system carried out with successive washes. Briefly, the skin of the thigh and the dorsal portion of a frog were removed and cut in pieces of 2×2 cm which were placed among two rings of PVC and maintained for 1 h in Ringer's solution. After this period, the melanin granules aggregate in the melanocytes, and the skin becomes clearer. When α-MSH or its spin labeled analogue is added to the medium, there is a dispersion of the pigments in the cell, resulting in skin darkening. The change in the coloration is therefore monitored (decrease in the skin reflectance) in a photovolt reflectometer. The result is expressed as percentage in relation to the initial value.

In the case of “Acetyl-Toac-Ser-Tyr-Ser-Met-Glu-His-Phe-Arg-Trp-Gly-Lys-Pro-Val-CONH2 [EPM-2]”, the “time to reversal of the maximum response after removal of the agonist” value is on record as 90 min; the “agonist character and potency compared to native α-MSH (dose-response curves)” value is reported as “fully maintaining the biological potency of the native α-MSH”. The “agonist character and potency compared to native α-MSH (dose-response curves)” value (listed as labeled analogue) is recorded as “full α-MSH agonist with equivalent potency”. The “natural biological activity maintained” value (relative to native α-MSH) was determined as 100%.
For “Acetyl-Ser-Tyr-Ser-Met-Glu-His-Phe-Arg-Trp-Gly-Lys-Pro-Val-CONH2 (Ac-SYSMEHFRWGKPV-NH2) [α-MSH, native melanocyte stimulating hormone, comparator, reference compound]”, the “time to reversal of the maximum response after removal of the agonist” value amounted to 90 min.
